Data as given in ChEMBL document CHEMBL2396582, “Large conductance Ca(2+)-activated K(+) channel (BKCa) activating properties of a series of novel N-arylbenzamides: Channel subunit dependent effects” (Bioorg Med Chem, 2013).
Activity calls are given as the source filed them. The rule behind the calls is not given here.

Key:
Format in all cases: cell-based
[1] = target: Calcium-activated potassium channel subunit alpha-1 (Homo sapiens) (UniProt Q12791); assay: Activation of human BKCA alpha channel expressed in HEK293 cells assessed as increase of rubidium efflux after 10 mins relative to control
[2] = target: Calcium-activated potassium channel subunit alpha-1 (Homo sapiens) (UniProt Q12791); assay: Activation of human BKCA alpha channel expressed in HEK293 cells assessed as increase of rubidium efflux after 10 mins
[3] = target: T1, Calcium-activated potassium channel alpha/beta 1 (Homo sapiens) (UniProt Q12791+Q16558); assay: Activation of human BKCA alpha/beta1 channel expressed in HEK293 cells assessed as increase of rubidium efflux after 10 mins
[4] = target: T1, Calcium-activated potassium channel alpha/beta 1 (Homo sapiens); assay: Activation of human BKCA alpha/beta1 channel expressed in HEK293 cells assessed as increase of rubidium efflux after 10 mins in presence iberiotoxin
[5] = target: T1, Calcium-activated potassium channel alpha/beta 1 (Homo sapiens); assay: Activation of human BKCA alpha/beta1 channel expressed in HEK293 cells assessed as increase of rubidium efflux after 10 mins relative to control
[6] = target: Calcium-activated potassium channel subunit alpha-1 (Homo sapiens) (UniProt Q12791); assay: Activation of human BKCA alpha channel expressed in HEK293 cells assessed as increase in intracellular calcium level at 100 uM after 30 mins
[7] = target: Calcium-activated potassium channel subunit alpha-1 (Homo sapiens) (UniProt Q12791); assay: Activation of human BKCA alpha channel expressed in HEK293 cells assessed as increase of rubidium efflux at 100 uM after 10 mins in presence of iberiotoxin
[8] = target: T1, Calcium-activated potassium channel alpha/beta 1 (Homo sapiens); assay: Activation of human BKCA alpha/beta1 channel expressed in HEK293 cells assessed as increase of rubidium efflux after 10 mins in presence paxilline
[9] = target: Calcium-activated potassium channel subunit alpha-1 (Homo sapiens) (UniProt Q12791); assay: Activation of human BKCA alpha channel expressed in HEK293 cells assessed as increase of rubidium efflux at 100 uM after 10 mins in presence of paxilline
[10] = target: Calcium-activated potassium channel subunit alpha-1 (Homo sapiens) (UniProt Q12791); assay: Activation of human BKCA alpha channel expressed in HEK293 cells assessed as increase in intracellular calcium level at 10 uM after 30 mins
[11] = target: Calcium-activated potassium channel subunit alpha-1 (Homo sapiens) (UniProt Q12791); assay: Activation of human BKCA alpha channel expressed in HEK293 cells assessed as increase in intracellular calcium level at 0.1 uM after 30 mins
[12] = target: Calcium-activated potassium channel subunit alpha-1 (Homo sapiens) (UniProt Q12791); assay: Activation of human BKCA alpha channel expressed in HEK293 cells assessed as increase in intracellular calcium level at 50 uM after 30 mins

Calcium-activated potassium channel subunit alpha-1 (Homo sapiens), sequence (Q12791 whole entry): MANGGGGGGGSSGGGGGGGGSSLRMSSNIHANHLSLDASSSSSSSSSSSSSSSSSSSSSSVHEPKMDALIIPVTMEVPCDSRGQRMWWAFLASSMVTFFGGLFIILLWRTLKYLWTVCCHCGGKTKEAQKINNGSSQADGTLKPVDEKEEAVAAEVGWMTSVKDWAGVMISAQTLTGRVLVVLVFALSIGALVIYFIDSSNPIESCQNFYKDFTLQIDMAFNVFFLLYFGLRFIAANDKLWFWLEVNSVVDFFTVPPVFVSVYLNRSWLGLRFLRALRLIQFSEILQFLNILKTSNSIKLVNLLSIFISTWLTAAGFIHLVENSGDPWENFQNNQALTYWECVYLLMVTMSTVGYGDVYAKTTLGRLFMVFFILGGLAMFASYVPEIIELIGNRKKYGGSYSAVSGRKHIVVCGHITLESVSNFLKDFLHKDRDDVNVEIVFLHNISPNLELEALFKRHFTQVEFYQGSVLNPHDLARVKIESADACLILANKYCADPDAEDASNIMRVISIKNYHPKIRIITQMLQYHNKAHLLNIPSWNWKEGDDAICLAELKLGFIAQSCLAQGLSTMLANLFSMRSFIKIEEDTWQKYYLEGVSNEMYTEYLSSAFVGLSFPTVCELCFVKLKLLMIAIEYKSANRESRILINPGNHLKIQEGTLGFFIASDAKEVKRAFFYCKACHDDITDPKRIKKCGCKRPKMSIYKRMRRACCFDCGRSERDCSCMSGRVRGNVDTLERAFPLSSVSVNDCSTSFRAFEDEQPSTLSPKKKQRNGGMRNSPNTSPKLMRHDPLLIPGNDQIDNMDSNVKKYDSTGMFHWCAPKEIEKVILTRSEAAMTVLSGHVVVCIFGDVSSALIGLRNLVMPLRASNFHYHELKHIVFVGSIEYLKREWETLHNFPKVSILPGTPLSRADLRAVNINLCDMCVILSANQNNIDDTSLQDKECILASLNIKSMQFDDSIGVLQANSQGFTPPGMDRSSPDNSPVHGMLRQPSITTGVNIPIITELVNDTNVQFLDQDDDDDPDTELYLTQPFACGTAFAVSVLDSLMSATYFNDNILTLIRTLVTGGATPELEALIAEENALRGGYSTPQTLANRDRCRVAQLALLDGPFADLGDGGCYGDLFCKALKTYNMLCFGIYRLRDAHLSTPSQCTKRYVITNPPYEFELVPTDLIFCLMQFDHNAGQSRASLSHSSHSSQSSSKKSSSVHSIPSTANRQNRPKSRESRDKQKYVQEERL

| SMILES | Emax [1] [%] | EC40 [2] [nM] | EC40 [3] [nM] | Activity [4] | Emax [5] [%] | Activity [6] [%] | Activity [7] | Activity [8] | Activity [9] | Activity [10] [%] | Activity [11] [%] | Activity [12] [%] |
| --- | --- | --- | --- | --- | --- | --- | --- | --- | --- | --- | --- | --- |
| O=c1[nH]c2cc(C(F)(F)F)ccc2n1-c1cc(C(F)(F)F)ccc1O | 61.7 | 350 | 790 | inactive | 76.6 | 5.3 | inactive | inactive | inactive | – | – | – |
| CNc1ccc2oc(C[C@H]3O[C@@]4(CC[C@H]3C)O[C@H]([C@H](C)C(=O)c3ccc[nH]3)[C@H](C)C[C@H]4C)nc2c1C(=O)O | – | – | – | – | – | – | – | – | – | 416 | – | – |
| Cc1ccccc1C(=O)Nc1cc(Cl)ccc1O | 59.7 | 2950 | 3630 | inactive | 56.8 | – | inactive | inactive | inactive | – | – | – |
| CC(C)[C@@]1(O)[C@@H](OC(=O)c2cc[nH]c2)[C@@]2(O)[C@]3(C)C[C@@]4(O)O[C@@]5([C@H](O)[C@@H](C)CC[C@]35O)[C@@]2(O)[C@@]41C | – | – | – | – | – | – | – | – | – | – | 38.1 | – |
| CCOc1ccccc1C(=O)Nc1cc(Cl)ccc1O | 69.9 | 210 | 120 | inactive | 99.5 | 6.2 | inactive | inactive | inactive | – | – | – |
| Cc1ccc(NC(=O)c2ccccc2O)c([N+](=O)[O-])c1 | 86.4 | 560 | 1410 | inactive | 54.4 | – | inactive | inactive | inactive | – | – | – |
| C=C[C@@]1(C)CC(=O)[C@]2(O)[C@@]3(C)[C@@H](O)CCC(C)(C)[C@@H]3[C@H](O)[C@H](OC(C)=O)[C@@]2(C)O1 | – | – | – | – | – | – | – | – | – | – | – | 22.3 |
| COc1ccc(Cl)cc1C(=O)Nc1ccccn1 | 49.1 | 4470 | 46800 | inactive | 42 | – | inactive | inactive | inactive | – | – | – |
| O=C(Nc1cc(Cl)ccc1O)c1ccccc1 | 62.5 | 1410 | – | inactive | 32.9 | – | inactive | inactive | inactive | – | – | – |
| COc1ccc(Cl)cc1C(=O)Nc1cccnc1 | 72.5 | 310 | 3470 | inactive | 68.8 | – | inactive | inactive | inactive | – | – | – |
| COc1ccc(Cl)cc1C(=O)Nc1ccncc1 | 99.2 | 1120 | 4160 | inactive | 65.1 | – | inactive | inactive | inactive | – | – | – |
